Consider 2 compounds from US8940762B2, “Methods for treating pain” (AbbVie Inc., priority 2010, dated 2015).

For experiment [1], the system named is osteoarthritic rats (MIA-induced osteoarthritis pain). In words: Monoiodoacetate-induced osteoarthritis (MIA-OA) pain model, hind limb grip force. Type of experiment: in vivo, Sprague-Dawley rats. The conditions noted are these: for percent return of grip force to normalcy: n=6. The protocol:
Pain behavior was assessed by measurement of hind limb grip force (GF) in adult osteoarthritic rats. Unilateral knee joint osteoarthritis was induced in rats by a single intraarticular (i.a.) injection of sodium monoiodoacetate (MIA) (Sigma, St. Louis, Mo.) (3 mg in 0.05 ml sterile isotonic saline) into the joint cavity using a 26 G needle under light (2-4%) isoflurane anesthesia, as previously described ([…]., Honore, P., 2009, Pharmacological modulation of movement-evoked pain in a rat model, Eur. J. […] Following injection, the animals were allowed to recover from the effects of anesthesia (usually 5-10 minutes) before returning them to their home cages. Grip strength was assessed in osteoarthritic rats as a measure of activity-induced pain. Measurements of peak hind limb grip force were conducted by recording the maximum compressive force (CFmax), in grams of force, exerted on the hind limb strain gauge, in a commercially available grip force measurement system (Columbus Instruments, Columbus, Ohio). During testing, each rat was gently restrained and allowed to grasp the wire mesh frame (10×12 cm) attached to the strain gauge. The animal was then moved in a rostral-to-caudal direction until the grip was broken. Each rat was sequentially tested twice at an approximately two-three minute interval to obtain a raw mean grip force (CFmax in gram force units). In order to account for the body weight differences among the rats, this raw mean grip force was converted to a maximum hind limb compressive force for each animal by dividing the CFmax by the body weight of the rat in kg [(CFmax in gram force)/kg body weight]. […] Compound A was administered in 10% DMSO/HBC vehicle orally at a volume of 2 ml/kg, 60 minutes before testing. The NSAID diclofenac (30 mg/kg, p.o.) was given 60 minutes before data collection and used as a positive control. A group of age-matched naïve (not injected with MIA) animals was added as a comparator to the drug-dosed groups. The vehicle control response for each group of MIA-treated animals was defined as the 0% response (0% effect), whereas the naïve control group was defined as the normal response and as 100% effect. The % effects for each dose group was expressed as % return of response to normalcy, compared to the naïve group. That is, the % effect=(Treatment CFmax-Vehicle CFmax)[…]]×100). Higher % effect numbers indicate increased relief from the pain in the model, with 100% indicating a return to the level of response seen in normal (non-osteoarthritic) animals. The data obtained from various dose groups for the test compound were compared with data from the naïve group.

The subject of experiment [2] is CCI rats (sciatic nerve-induced neuropathic pain). The note with it: single dose p.o.; at less than about 100 micromoles/kg, for example less than about 30 micromoles/kg. The source says:
Food and water were available ad libitum at all times except during testing. […]
The von Frey filaments were presented perpendicularly to the plantar surface of the selected hind paw, and then held in this position for approximately 8 seconds with enough force to cause a slight bend in the filament. Positive responses included an abrupt withdrawal of the hind paw from the stimulus, or flinching behavior immediately following removal of the stimulus.

Turning to `c1cc2cc(-c3ccc(O[C@H]4C[C@H]5CC[C@@H](C4)N5)cn3)ccc2[nH]1` [Compound A, 5-(5-((1R,3r,5S)-8-azabicyclo[3.2.1]octan-3-yloxy)pyridine-2-yl)-1H-indole], the “percent return of grip force to normalcy” value in experiment [1] (3 μmol/kg p.o., 60 minutes before data collection, MIA rats) is “approximately 39%”; in experiment [1] (10 μmol/kg p.o., 60 minutes before data collection, MIA rats) it was roughly 60%; in experiment [1] (30 μmol/kg p.o., 60 minutes before data collection, MIA rats) it was roughly 73%. Further, the “ED50 (return of grip force to normalcy)” value in experiment [1] (p.o., 60 minutes before testing, MIA rats) is “approximately 6 μmol/kg”. Further, the “change in Paw Withdrawal Threshold versus vehicle” value in experiment [2] is “statistically significant change”.

Take `O=C(O)Cc1ccccc1Nc1c(Cl)cccc1Cl` [diclofenac, reference compound]: the “% Effect (return of grip force to normalcy)” value in experiment [1] (30 mg/kg p.o., 60 minutes before data collection, positive control) is listed as “about 69%”.
